Legend:
[1] = target: T1, Prolyl endopeptidase (Homo sapiens, UniProt P48147); assay: Inhibition of POP (unknown origin) using (Z)-Gly-Pro-p-nitroanilide as substrate preincubated for 5 mins followed by substrate addition and measured after 30 mins by spectrophotometric method
T1 sequence (P48147 whole entry): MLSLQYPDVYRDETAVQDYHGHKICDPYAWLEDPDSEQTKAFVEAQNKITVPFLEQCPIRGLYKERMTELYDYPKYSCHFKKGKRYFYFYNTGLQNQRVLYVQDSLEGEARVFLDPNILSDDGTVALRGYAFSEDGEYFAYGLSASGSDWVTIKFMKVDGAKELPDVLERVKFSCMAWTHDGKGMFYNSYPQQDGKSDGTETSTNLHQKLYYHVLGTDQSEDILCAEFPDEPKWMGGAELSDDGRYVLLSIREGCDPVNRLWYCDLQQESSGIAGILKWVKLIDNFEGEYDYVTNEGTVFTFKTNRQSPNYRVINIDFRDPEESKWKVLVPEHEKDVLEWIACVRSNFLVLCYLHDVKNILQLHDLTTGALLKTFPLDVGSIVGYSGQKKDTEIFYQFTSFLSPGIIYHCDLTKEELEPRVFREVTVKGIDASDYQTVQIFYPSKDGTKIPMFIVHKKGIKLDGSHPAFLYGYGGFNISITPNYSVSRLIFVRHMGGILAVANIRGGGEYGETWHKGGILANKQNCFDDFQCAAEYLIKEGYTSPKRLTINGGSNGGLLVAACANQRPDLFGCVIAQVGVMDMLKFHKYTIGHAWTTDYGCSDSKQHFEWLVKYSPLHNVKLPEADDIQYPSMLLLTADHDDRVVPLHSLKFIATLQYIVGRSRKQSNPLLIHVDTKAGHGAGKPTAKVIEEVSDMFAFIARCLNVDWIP

[2] = target: T2, Cholinesterase (Homo sapiens, UniProt P06276); assay: Inhibition of human BuChE using butyrylthiocholine iodide as substrate measured for 1 min by Ellman's method
[3] = target: Acetylcholinesterase (Homo sapiens, UniProt P22303)
Description: Inhibition of human AChE using acetylthiocholine iodide as substrate measured for 1 min by Ellman's method

[4] = species on record: Homo sapiens; assay: Selectivity index, ratio of IC50 for human BuChE to IC50 for human AChE
[5] = target: Glycogen synthase kinase-3 beta (Homo sapiens) (UniProt P49841); assay: Inhibition of GSK3B (unknown origin) at 10 uM relative to control
[6] = target: T2, Cholinesterase; assay: Mixed-type inhibition of human BuChE assessed as enzyme-inhibitor complex using butyrylthiocholine iodide as substrate by Lineweaver-Burk plot analysis
[7] = target: T2, Cholinesterase; assay: Mixed-type inhibition of human BuChE assessed as enzyme-substrate-inhibitor complex using butyrylthiocholine iodide as substrate by Lineweaver-Burk plot analysis
[8] = Permeability of the compound after 2.45 hrs by PAMPA; format: ADME; details: read-out: permeability

Acetylcholinesterase, sequence (P22303 whole entry): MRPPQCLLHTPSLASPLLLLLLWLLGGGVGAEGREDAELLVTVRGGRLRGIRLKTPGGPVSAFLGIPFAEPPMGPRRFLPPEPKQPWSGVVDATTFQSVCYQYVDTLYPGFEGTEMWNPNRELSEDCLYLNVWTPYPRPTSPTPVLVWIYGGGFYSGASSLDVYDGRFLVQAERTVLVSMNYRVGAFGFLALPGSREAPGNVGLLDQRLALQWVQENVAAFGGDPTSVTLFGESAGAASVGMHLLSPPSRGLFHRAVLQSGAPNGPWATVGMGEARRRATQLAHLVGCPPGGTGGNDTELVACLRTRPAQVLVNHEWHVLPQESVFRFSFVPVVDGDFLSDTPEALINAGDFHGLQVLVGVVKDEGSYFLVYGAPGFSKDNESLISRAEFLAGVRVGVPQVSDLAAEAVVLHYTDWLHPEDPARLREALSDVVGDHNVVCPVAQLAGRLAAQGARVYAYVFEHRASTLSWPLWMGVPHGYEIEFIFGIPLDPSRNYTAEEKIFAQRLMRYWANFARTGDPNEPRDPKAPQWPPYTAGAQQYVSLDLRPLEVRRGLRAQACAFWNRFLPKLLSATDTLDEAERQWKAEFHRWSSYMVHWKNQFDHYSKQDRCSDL
T2 sequence (P06276 whole entry): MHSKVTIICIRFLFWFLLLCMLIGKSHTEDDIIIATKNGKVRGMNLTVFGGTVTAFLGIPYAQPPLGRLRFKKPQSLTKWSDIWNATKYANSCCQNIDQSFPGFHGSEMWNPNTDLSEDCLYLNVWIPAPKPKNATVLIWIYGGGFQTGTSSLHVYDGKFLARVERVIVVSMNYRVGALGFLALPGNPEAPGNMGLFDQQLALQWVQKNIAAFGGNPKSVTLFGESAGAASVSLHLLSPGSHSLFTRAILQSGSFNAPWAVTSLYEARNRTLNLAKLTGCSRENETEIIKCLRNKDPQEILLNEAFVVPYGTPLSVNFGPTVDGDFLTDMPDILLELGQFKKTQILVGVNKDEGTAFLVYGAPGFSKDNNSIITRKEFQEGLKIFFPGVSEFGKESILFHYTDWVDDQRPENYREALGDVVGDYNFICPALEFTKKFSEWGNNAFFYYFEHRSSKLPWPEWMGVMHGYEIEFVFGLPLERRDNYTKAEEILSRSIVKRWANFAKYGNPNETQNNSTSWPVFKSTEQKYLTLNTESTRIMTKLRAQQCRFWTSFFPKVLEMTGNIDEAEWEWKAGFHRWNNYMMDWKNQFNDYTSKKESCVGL
Glycogen synthase kinase-3 beta (Homo sapiens), sequence (P49841 whole entry, looked up): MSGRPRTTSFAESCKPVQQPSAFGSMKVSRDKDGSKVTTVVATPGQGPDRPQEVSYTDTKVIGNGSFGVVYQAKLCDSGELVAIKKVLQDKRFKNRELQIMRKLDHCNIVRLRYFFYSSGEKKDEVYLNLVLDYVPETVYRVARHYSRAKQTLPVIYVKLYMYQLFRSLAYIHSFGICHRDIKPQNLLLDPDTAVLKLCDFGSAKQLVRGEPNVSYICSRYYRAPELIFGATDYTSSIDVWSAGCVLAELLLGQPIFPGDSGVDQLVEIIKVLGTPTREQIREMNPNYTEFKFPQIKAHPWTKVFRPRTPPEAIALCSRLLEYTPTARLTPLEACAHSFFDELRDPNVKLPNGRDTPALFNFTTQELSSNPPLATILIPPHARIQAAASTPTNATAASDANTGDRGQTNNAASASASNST

SMILES	IC50 [1] [µM]	IC50 [2] [µM]	IC50 [3] [µM]	Ratio IC50 [4]	inhibition [5] [%]	Ki [6] [µM]	Ki [7] [µM]	Papp at 2.45 h [8] [×10⁻⁶ cm/s]
COc1cc2c3cc1Oc1c(O)c(OC)cc4c1[C@@H](Cc1ccc(O)c(c1)Oc1ccc(cc1)C[C@@H]3N(C)CC2)N(C)CC4 [OBAMEGINE]	> 200	> 100	97	1.5				
COc1cc2c3cc1Oc1c(O)c(OC)cc4c1[C@H](Cc1ccc(cc1)Oc1cc(ccc1O)C[C@H]3N(C)CC2)N(C)CC4	189	0.8	> 100	0.008	10	6.41	39.7	1.8
COc1cc2c3cc1Oc1c(OC)c(OC)cc4c1[C@@H](Cc1ccc(O)c(c1)Oc1ccc(cc1)C[C@@H]3N(C)CC2)N(C)CC4 [BERBAMINE]	> 200	> 100	> 100	0.4				
COc1cc2c(cc1O)C(Cc1ccc(O)c(Oc3cc(CC4c5cc(O)c(OC)cc5CCN4C)ccc3OC)c1)N(C)CC2 (stereo not given)		6.9	66	0.1				
COc1ccc2cc3[n+](cc2c1OC)CCc1cc2c(cc1-3)OCO2 [BERBERINE]								0.1
C/C=C1\[C@H]2C=C(C)C[C@]1(N)c1ccc(=O)[nH]c1C2 [HUPERZINE A]		> 100						
COc1cc2c(cc1OC)-c1cc3ccc(OC)c(OC)c3c[n+]1CC2 [PALMITINE]	> 200	> 100		86				
COc1ccc2cc3n(c(=O)c2c1OC)CCc1cc2c(cc1-3)OCO2 [OXYBERBERINE]	> 200	68	> 100	1.1				
CCN(CC)Cc1cc2cc(c1O)Oc1ccc(cc1)C[C@H]1c3cc(c(OC)cc3CCN1C)Oc1c(OC)c(OC)cc3c1[C@@H](C2)N(C)CC3		> 100	68					
COc1cc2c(cc1Oc1c3c(cc(OC)c1OC)CCN(C)C3)C(Cc1ccc(O)cc1)N(C)CC2 (stereo not given)	> 200	68	> 100	0.2				
COc1ccc2c3c1O[C@H]1C[C@@H](O)C=C[C@@]31CCN(C)C2 [GALANTAMINE]	> 200							
